# Measurements published in US6340694B1, “Diarylbenzopyran derivatives as cyclooxygenase-2 inhibitors” (Pacific Corporation, priority 1998, dated 2002).
# Assays:
# COX-2 = biological target: T1, COX-2 (Mus musculus, UniProt Q05769); experiment: Evaluation of COX-2's inhibition efficacy (PGE2 radioimmuno assay, LPS-induced, aspirin-pretreated peritoneal macrophages); assay type: cell-based, C57BL/6 mouse
# T1 construct: endogenous in cells; host or cells: peritoneal macrophages of C57BL/6 mouse, aspirin-pretreated, LPS-induced
# T1 sequence (Q05769 18-604): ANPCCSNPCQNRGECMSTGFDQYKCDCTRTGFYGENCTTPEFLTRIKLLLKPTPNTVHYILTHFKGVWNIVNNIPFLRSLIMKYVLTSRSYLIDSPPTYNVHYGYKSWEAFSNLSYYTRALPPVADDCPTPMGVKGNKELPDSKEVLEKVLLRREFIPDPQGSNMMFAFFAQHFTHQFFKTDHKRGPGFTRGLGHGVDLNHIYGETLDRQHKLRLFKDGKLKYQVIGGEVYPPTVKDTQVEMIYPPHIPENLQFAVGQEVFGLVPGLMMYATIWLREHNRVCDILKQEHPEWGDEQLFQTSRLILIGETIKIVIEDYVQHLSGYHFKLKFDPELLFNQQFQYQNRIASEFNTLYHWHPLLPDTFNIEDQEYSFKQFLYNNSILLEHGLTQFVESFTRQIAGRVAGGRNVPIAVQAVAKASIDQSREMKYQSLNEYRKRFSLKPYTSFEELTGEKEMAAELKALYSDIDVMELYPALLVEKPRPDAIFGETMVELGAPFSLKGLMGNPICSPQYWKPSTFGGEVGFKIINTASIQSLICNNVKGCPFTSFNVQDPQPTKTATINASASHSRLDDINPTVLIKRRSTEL
# Description: Regarding the compounds in the above Examples and indomethacin, the inhibition efficacy of COX-2 and COX-1 are being measured by the following two methods. […] Evaluation of COX-2's Inhibition Efficacy (J. Pharmacol. Exp. […] After cleaning C57BL/6 mouse's abdomen by 70% EtOH, the skin of mouse's abdomen was eliminated cautiously not to harm peritomeum and 5 ml of cold PBS was poured into the abdominal cavity and in certain times later macrophage-bleeding abdominal-liquid was collected by syringe. […] After putting 1 ml cell suspension having cell number of 1×10^6 cells/mu into each 24-well microtiter plates, macrophages were adhered to the bottom of plate by culturing in the condition of 5% CO2/95% O2, at a temperature of 37° C. for 2 hours. Other cells not being adhered to were eliminated by washing two times with PBS. The purity of macrophages obtained through this process was identified by differential counting. […] After inducing COX-2 by LPS, the cell culture medium was eliminated and macrophages was washed two times with PBS. And 1 ml of RRPI-1640 badge was added to each well again and after treating them with sample with appropriate concentration, they were cultured at a temperature of 37i É for 10 minutes. And then treated them with arachidonic acid to make their final concentration as 10 μM and cultured them additional 10 minutes, all the supernatant liquid of reaction was obtained. The amount of PGE2 produced in the supernatant liquid of reaction was determined by the PGE2 radioimmuno assay.
# COX-1 = biological target: T2, COX-1 (Mus musculus, UniProt P22437); experiment: Evaluation of COX-1's inhibition efficacy (macrophages without aspirin and LPS pre-treatment); assay type: cell-based, C57BL/6 mouse
# T2 construct: there is no pre-treatment of aspirin and LPS in the adhesion of macrophage; endogenous in cells; host or cells: peritoneal macrophages of C57BL/6 mouse, without aspirin and LPS pre-treatment
# T2 sequence (P22437 27-602): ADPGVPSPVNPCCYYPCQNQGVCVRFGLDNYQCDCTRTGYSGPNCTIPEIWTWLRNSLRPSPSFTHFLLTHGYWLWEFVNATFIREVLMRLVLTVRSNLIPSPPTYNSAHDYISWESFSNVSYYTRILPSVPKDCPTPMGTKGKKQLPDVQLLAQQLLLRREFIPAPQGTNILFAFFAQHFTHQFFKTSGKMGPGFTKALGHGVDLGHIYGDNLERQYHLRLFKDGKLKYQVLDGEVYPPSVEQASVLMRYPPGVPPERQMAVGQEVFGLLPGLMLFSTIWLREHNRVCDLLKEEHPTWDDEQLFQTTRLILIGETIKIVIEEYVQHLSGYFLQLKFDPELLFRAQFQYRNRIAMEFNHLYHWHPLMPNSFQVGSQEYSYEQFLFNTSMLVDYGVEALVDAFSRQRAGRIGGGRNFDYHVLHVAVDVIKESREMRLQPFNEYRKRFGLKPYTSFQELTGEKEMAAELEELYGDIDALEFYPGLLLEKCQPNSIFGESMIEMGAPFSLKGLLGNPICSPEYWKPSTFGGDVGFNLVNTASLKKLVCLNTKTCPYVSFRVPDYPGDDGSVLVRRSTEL
# Description: Regarding the compounds in the above Examples and indomethacin, the inhibition efficacy of COX-2 and COX-1 are being measured by the following two methods.
# After cleaning C57BL/6 mouse's abdomen by 70% EtOH, the skin of mouse's abdomen was eliminated cautiously not to harm peritomeum and 5 ml of cold PBS was poured into the abdominal cavity and in certain times later macrophage-bleeding abdominal-liquid was collected by syringe. By adding RPMI-1640 badge containing penicillin(100 unit/mt) and streptomycin([…]) to cell pellet obtained by centrifugation of collected liquid about 5 minutes in 1500 rpm, it was disperesed and also COX-1 existing in the cell was inactivated by treating with 500 μM aspirin. After putting 1 ml cell suspension having cell number of 1×10^6 cells/mu into each 24-well microtiter plates, macrophages were adhered to the bottom of plate by culturing in the condition of 5% CO2/95% O2, at a temperature of 37° C. for 2 hours. Other cells not being adhered to were eliminated by washing two times with PBS. The purity of macrophages obtained through this process was identified by differential counting. After adding RPMI-1640 badge(normally 5×10^5 cell/ml) containing 3% right fetal blood serum to macrophage and treating it with LPS(lipopolysaccharide) to make final concentration as 10 μg/ml, it was cultured in the condition of 5% CO2, at a temperature of 37° C. for 16 hours. After inducing COX-2 by LPS, the cell culture medium was eliminated and macrophages was washed two times with PBS. And 1 ml of RRPI-1640 badge was added to each well again and after treating them with sample with appropriate concentration, they were cultured at a temperature of 37i É for 10 minutes. And then treated them with arachidonic acid to make their final concentration as 10 μM and cultured them additional 10 minutes, all the supernatant liquid of reaction was obtained. The amount of PGE2 produced in the supernatant liquid of reaction was determined by the PGE2 radioimmuno assay. The 100% COX-2's activation is referenced by the difference of the amount of PGE2 produced in the supernatant liquid of reaction between with 10 μM arachidonic acid treatment and without 10 μM arachidonic acid treatment.
# 2. Evaluation of COX-1's Inhibition Efficacy
# Following the same procedure as the above evaluation of COX-2's inhibition efficacy, but there is no pre-treatment of aspirin and LPS in the adhesion of macrophage.
Compound,inhibition at 0.1 µg/mL (COX-2; 0.1 μg/ml),inhibition at 1 µg/mL (COX-2; 1 μg/ml),inhibition at 1 µg/mL (COX-1; 1 μg/ml),inhibition at 10 µg/mL (COX-1; 10 μg/ml),inhibition at 10 µg/mL (COX-2; 10 μg/ml),further results
"NS(=O)(=O)c1ccc(-c2oc3cc(F)ccc3c(=O)c2-c2ccc(Cl)c(Cl)c2)cc1 [Example 62, 2-(4-(Aminosulfonyl)phenyl)-7-fluoro-3-(3,4-dichlorophenyl)-4H-1-benzopyran-4-one]",89%,100%,54%,76%,–,–
"NS(=O)(=O)c1ccc(-c2oc3ccccc3c(=O)c2-c2ccc3c(c2)OCO3)cc1 [Example 54, 2-(4-(Aminosulfonyl)phenyl)-3-((3,4-methylenedioxy)phenyl)-4H-1-benzopyran-4-one]",–,–,–,–,–,Inhibition (%) COX-2 (COX-2; 0.1 μg/ml): 20%; Inhibition (%) COX-2 (COX-2; 1 μg/ml): 84%; Inhibition (%) COX-1 (COX-1; 10 μg/ml): 75%
"CSc1ccc(-c2c(-c3ccc(S(N)(=O)=O)cc3)oc3ccccc3c2=O)cc1 [Example 56, 2-(4-(Aminosulfonyl)phenyl)-3-((4-methylthio)phenyl)-4H-1-benzopyran-4-one]",–,–,–,–,–,Inhibition (%) COX-2 (COX-2; 0.1 μg/ml): 53%; Inhibition (%) COX-2 (COX-2; 1 μg/ml): 84%; Inhibition (%) COX-2 (COX-2; 10 μg/ml): 90%; Inhibition (%) COX-1 (COX-1; 1 μg/ml): 77%; Inhibition (%) COX-1 (COX-1; 10 μg/ml): 90%
"Cc1ccccc1-c1c(-c2ccc(S(C)(=O)=O)cc2)oc2ccccc2c1=O [Example 23, 3-(2-Methylphenyl)-2-(4-(methylsulfonyl)phenyl)-4H-1-benzopyran-4-one]",23%,84%,–,–,97%,–
"NS(=O)(=O)c1ccc(-c2oc3cc(F)ccc3c(=O)c2-c2ccccc2F)cc1 [Example 60, 2-(4-(Aminosulfonyl)phenyl)-7-fluoro-3-(2-fluorophenyl)-4H-1-benzopyran-4-one]",43%,100%,–,–,–,–
"COc1ccc(Cl)c2oc(-c3ccc(S(N)(=O)=O)cc3)c(-c3ccc(F)cc3)c(=O)c12 [Example 65, 2-(4-(Aminosulfonyl)phenyl)-8-chloro-3-(4-fluorophenyl)-5-methoxy-4H-1-benzopyran-4-one]",–,67%,24%,73%,93%,–
"NS(=O)(=O)c1ccc(-c2oc3cc(F)ccc3c(=O)c2-c2cccc(F)c2)cc1 [Example 61, 2-(4-(Aminosulfonyl)phenyl)-7-fluoro-3-(3-fluorophenyl)-4H-1-benzopyran-4-one]",69%,97%,22%,38%,–,–
"CS(=O)(=O)c1ccc(-c2oc3ccccc3c(=O)c2-c2cccc(Cl)c2Cl)cc1 [Example 14, 3-(2,3-Dichlorophenyl)-2-(4-(methylsulfonyl)phenyl)-4H-1-benzopyran-4-one]",18%,32%,–,–,71%,–
"NS(=O)(=O)c1ccc(-c2oc3ccc(F)cc3c(=S)c2-c2ccc(F)cc2)cc1 [Example 68, 2-(4-(Aminosulfonyl)phenyl)-6-fluoro-3-(4-fluorophenyl)-4H-1-benzopyran-4-thione]",89%,100%,58%,83%,–,–
"NS(=O)(=O)c1ccc(-c2oc3c(Cl)ccc(O)c3c(=O)c2-c2ccc(F)cc2)cc1 [Example 66, 2-(4-(Aminosulfonyl)phenyl)-8-chloro-3-(4-fluorophenyl)-5-hydroxy-4H-1-benzopyran-4-one]",–,83%,40%,80%,90%,–
"CS(=O)(=O)c1ccc(-c2oc3ccccc3c(=O)c2-c2ccccn2)cc1 [Example 33, 2-(4-(Methylsulfonyl)phenyl)-3-(2-pyridinyl)-4H-1-benzopyran-4-one]",–,27%,–,17%,44%,–

# Second part, led by results:
inhibition at 0.1 µg/mL (COX-2; 0.1 μg/ml),inhibition at 1 µg/mL (COX-2; 1 μg/ml),inhibition at 1 µg/mL (COX-1; 1 μg/ml),inhibition at 10 µg/mL (COX-1; 10 μg/ml),inhibition at 10 µg/mL (COX-2; 10 μg/ml),Compound,further results
22%,86%,–,–,95%,"CS(=O)(=O)c1ccc(-c2oc3ccccc3c(=O)c2-c2cccc(Cl)c2)cc1 [Example 24, 3-(3-Chlorophenyl)-2-(4-(methylsulfonyl)phenyl)-4H-1-benzopyran-4-one]",–
23%,86%,–,–,–,"NS(=O)(=O)c1ccc(-c2oc3ccc(F)cc3c(=O)c2-c2ccccc2)cc1 [Example 47, 2-(4-(Aminosulfonyl)phenyl)-6-fluoro-3-phenyl-4H-1-benzopyran-4-one]",–
14%,82%,–,–,90%,"Cc1cccc(-c2c(-c3ccc(S(C)(=O)=O)cc3)oc3ccccc3c2=O)c1 [Example 22, 3-(3-Methylphenyl)-2-(4-(methylsulfonyl)phenyl)-4H-1-benzopyran-4-one]",–
< 5%,52%,–,–,47%,"COc1ccc2c(=O)c(-c3ccc(F)cc3)c(-c3ccc(S(N)(=O)=O)cc3)oc2c1 [Example 64, 2-(4-(Aminosulfonyl)phenyl)-7-methoxy-3-(4-fluorophenyl)-4H-1-benzopyran-4-one]",–
42%,98%,68%,90%,100%,"NS(=O)(=O)c1ccc(-c2oc3ccccc3c(=S)c2-c2ccc(F)cc2)cc1 [Example 69, 2-(4-(Aminosulfonyl)phenyl)-3-(4-fluorophenyl)-4H-1-benzopyran-4-thione]",–
39%,100%,–,–,–,"NS(=O)(=O)c1ccc(-c2oc3cc(F)ccc3c(=O)c2-c2ccc(F)cc2)cc1 [Example 59, 2-(4-(Aminosulfonyl)phenyl)-7-fluoro-3-(4-fluorophenyl)-4H-1-benzopyran-4-one]",–
